Source: US11540999B2, “Deodorant compositions” (The Procter & Gamble Company, priority 2017, dated 2023)
Structures can show the parent of a compound that is named as a salt.

Tested on: two key underarm bacteria strains
Test: Raw material microbial inhibition, verbal summary of Table 2
Assay type: cell-based
Settings: both strains of Table 2, in words
Protocol: The data in Table 2 above was generated with the following test method.
3. Microbial Strains • Staphylococcus epidermidis (clinical isolate) • Corynebacterium mucofaciens (clinical isolate)
In row A of a 96 deep well plate pipette 180 ul of sterile BHI with 1% Tween 80 as a negative growth control. All other wells receive 180 ul of inoculum. From the master plate introduce 20 ul to the corresponding row in the test plate using an 8-channel pipette. Loaded plates are placed on a plate shaker in the 37° C. incubator and incubated overnight. The next day read the O.D. 600 on a plate reader. The MIC is the last well from the right that has no bacterial growth.

SMILES	performance against the bacteria as raw materials
CC(C)=CCCC(C)=CC=O [Citral]	performing well
C=CCCCCCCCCC(=O)N[C@@H](Cc1ccccc1)C(=O)O [Sepiwhite]	performing well
C=CCc1ccc(O)c(OC)c1 [Eugenol]	performing well
COC(=O)CCC(=O)OC [Dimethyl Succinate]	performing well
O=C([O-])[O-].[Ca+2] [Ca Carbonate, calcium carbonate]	performing moderately well
Cc1cc(CC(C)CC(C)(C)C)n(O)c(=O)c1.NCCO (stereo not shown) [piroctone olamine]	perform particularly well
CCOC(=O)CC(O)(CC(=O)OCC)C(=O)OCC [Triethyl citrate]	performing well
